target: T1, human Fatty Acid Synthase (Homo sapiens, UniProt P49327); test: Human FAS enzyme assay (decrease in NADPH fluorescence); assay type: biochemical; settings: % inhibition at a concentration of 100 μmolar
T1 construct: made in house
Summary of the method: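 In-house human FAS was preincubated with compound and NADPH for 15 min at room temperature in 0.1 M Tris pH 7.5 with EDTA, glutathione and BSA. Malonyl CoA and acetyl CoA (500 μM and 150 μM in the added mix) were then added for 60 min. IC50 came from time-zero-subtracted NADPH fluorescence (340/460 nm).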

T1 sequence (P49327 whole entry): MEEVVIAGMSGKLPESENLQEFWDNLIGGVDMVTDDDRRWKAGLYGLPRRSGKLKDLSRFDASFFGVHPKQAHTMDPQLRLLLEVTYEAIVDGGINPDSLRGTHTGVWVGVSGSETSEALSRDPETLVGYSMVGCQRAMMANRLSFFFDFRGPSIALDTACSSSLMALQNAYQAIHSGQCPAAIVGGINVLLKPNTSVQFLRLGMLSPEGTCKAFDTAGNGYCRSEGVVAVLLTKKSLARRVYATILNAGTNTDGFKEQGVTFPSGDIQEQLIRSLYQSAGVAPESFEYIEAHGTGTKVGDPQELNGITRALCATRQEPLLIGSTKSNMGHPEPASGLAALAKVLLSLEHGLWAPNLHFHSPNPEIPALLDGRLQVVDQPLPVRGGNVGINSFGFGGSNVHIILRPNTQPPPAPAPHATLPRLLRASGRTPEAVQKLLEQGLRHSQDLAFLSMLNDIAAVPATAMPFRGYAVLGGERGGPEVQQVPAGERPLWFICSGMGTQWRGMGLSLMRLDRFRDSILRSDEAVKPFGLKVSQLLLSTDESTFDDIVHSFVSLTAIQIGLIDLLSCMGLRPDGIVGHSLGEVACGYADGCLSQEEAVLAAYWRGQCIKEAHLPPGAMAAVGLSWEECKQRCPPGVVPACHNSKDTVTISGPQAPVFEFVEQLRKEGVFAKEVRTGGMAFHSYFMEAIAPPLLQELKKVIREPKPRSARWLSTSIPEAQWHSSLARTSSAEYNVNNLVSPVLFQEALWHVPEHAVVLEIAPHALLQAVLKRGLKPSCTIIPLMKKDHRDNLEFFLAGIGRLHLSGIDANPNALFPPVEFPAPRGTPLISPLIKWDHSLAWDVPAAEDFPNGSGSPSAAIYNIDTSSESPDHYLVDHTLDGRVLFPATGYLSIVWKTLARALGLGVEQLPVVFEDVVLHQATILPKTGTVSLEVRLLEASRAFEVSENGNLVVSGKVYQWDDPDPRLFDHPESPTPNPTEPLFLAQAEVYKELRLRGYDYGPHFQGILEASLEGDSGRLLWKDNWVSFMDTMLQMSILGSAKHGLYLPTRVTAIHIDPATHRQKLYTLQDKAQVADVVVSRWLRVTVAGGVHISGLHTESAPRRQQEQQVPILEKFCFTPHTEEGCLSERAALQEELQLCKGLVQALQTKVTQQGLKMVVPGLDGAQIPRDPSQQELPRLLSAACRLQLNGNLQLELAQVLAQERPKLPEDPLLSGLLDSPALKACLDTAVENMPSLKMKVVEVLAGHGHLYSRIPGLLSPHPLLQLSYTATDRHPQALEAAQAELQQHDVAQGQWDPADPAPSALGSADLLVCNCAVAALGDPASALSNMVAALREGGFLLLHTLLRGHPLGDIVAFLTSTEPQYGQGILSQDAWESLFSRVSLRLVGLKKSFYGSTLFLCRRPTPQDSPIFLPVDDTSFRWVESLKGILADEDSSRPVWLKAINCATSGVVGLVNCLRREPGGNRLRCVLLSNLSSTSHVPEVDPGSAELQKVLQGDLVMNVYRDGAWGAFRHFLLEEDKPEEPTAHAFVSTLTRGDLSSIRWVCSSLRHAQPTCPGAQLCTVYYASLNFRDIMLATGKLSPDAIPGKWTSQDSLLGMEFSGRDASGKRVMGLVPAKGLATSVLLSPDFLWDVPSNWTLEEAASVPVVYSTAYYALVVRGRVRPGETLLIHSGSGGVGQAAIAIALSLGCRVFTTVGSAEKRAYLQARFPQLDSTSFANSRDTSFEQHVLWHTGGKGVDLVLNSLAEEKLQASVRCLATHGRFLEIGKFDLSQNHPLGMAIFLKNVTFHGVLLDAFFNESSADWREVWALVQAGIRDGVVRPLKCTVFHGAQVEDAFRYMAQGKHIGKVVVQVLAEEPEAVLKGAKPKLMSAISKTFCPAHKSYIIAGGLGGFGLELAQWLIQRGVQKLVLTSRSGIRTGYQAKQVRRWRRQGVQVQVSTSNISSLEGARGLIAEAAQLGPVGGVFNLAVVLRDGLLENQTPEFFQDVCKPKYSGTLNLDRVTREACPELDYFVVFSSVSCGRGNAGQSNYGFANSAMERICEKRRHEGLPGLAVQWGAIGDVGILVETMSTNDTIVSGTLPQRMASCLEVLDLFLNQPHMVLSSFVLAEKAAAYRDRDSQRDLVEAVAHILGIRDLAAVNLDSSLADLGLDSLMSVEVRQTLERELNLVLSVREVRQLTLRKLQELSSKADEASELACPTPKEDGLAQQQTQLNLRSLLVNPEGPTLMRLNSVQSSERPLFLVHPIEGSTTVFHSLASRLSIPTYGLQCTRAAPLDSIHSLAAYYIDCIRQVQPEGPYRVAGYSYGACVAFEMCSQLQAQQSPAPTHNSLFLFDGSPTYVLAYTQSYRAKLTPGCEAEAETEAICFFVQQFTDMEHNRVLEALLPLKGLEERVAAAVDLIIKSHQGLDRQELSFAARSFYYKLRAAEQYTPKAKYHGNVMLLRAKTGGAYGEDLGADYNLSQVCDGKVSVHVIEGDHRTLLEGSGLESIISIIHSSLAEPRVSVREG

inhibition at 100 µM [%]	SMILES
94.3	Cc1ccc(C(=O)N2CCC(c3ccc(C#N)cc3)CC2)cc1NC(=O)NCCC(=O)NCCO [Example 230, 3-[[5-[4-(4-cyanophenyl)piperidine-1-carbonyl]-2-methyl-phenyl]carbamoylamino]-N-(2-hydroxyethyl)propanamide]
90.3	Cc1ccc(C(=O)N2CCC(c3ccc(C#N)cc3)CC2)cc1NC(=O)NCCNC(=O)CC(=O)N(C)C [Example 231, N-[2-[[5-[4-(4-cyanophenyl)piperidine-1-carbonyl]-2-methyl-phenyl]carbamoylamino]ethyl]-N′,N′-dimethyl-propanediamide]
94.2	CC(=O)NCC(C)NC(=O)Nc1cc(C(=O)N2CCC(c3ccc(C#N)cc3)CC2)ccc1C (stereo not drawn) [Example 232, N-[2-[[5-[4-(4-cyanophenyl)piperidine-1-carbonyl]-2-methyl-phenyl]carbamoylamino]propyl]acetamide]
86.5	Cc1ccc(C(=O)N2CCC(c3ccc(C#N)cc3)CC2)cc1NC(=O)NCCCNC(=O)N1CCOCC1 [Example 233, N-[3-[[5-[4-(4-cyanophenyl)piperidine-1-carbonyl]-2-methyl-phenyl]carbamoylamino]propyl]morpholine-4-carboxamide]
91.5	Cc1ccc(C(=O)N2CCC(c3ccc(C#N)cc3)CC2)cc1NC(=O)NCCNC(N)=O [Example 234, 3-[2-(carbamoylamino)ethyl]-1-[5-[4-(4-cyanophenyl)piperidine-1-carbonyl]-2-methyl-phenyl]urea]
95.8	CCCNC(=O)CCCNC(=O)Nc1cc(C(=O)N2CCC(c3ccc(C#N)cc3)CC2)ccc1C [Example 235, 4-[[5-[4-(4-cyanophenyl)piperidine-1-carbonyl]-2-methyl-phenyl]carbamoylamino]-N-propyl-butanamide]
90.9	COC(=O)CNC(=O)CNC(=O)Nc1cc(C(=O)N2CCC(c3ccc(C#N)cc3)CC2)ccc1C [Example 237, Methyl 2-[[2-[[5-[4-(4-cyanophenyl)piperidine-1-carbonyl]-2-methyl-phenyl]carbamoylamino]acetyl]amino]acetate]
89.9	Cc1ccc(C(=O)N2CCC(c3ccc(C#N)cc3)CC2)cc1NC(=O)NCC(=O)N(C)C [Example 238, 2-[[5-[4-(4-cyanophenyl)piperidine-1-carbonyl]-2-methyl-phenyl]carbamoylamino]-N,N-dimethyl-acetamide]
99.3	Cc1ccc(C(=O)N2CCC(c3ccc(C#N)cc3)CC2)cc1NC(=O)N[C@@H](CCS(C)(=O)=O)C(=O)O [Example 240, (2S)-2-[[5-[4-(4-cyanophenyl)piperidine-1-carbonyl]-2-methyl-phenyl]carbamoylamino]-4-methylsulfonyl-butanoic acid]
92.4	Cc1ccc(C(=O)N2CCC(c3ccc(C#N)cc3)CC2)cc1NC(=O)NCCC(=O)Nc1cnoc1C [Example 241, 3-[[5-[4-(4-cyanophenyl)piperidine-1-carbonyl]-2-methyl-phenyl]carbamoylamino]-N-(5-methyl-1,2-oxazol-4-yl)propanamide]
90.6	Cc1ccc(C(=O)N2CCC(c3ccc(C#N)cc3)CC2)cc1NC(=O)NCCC(=O)N(CCO)CCO [Example 242, 3-[[5-[4-(4-cyanophenyl)piperidine-1-carbonyl]-2-methyl-phenyl]carbamoylamino]-N,N-bis(2-hydroxyethyl)propanamide]
99.9	Cc1ccc(C(=O)N2CCC(c3ccc(C#N)cc3)CC2)cc1NC(=O)NCc1ccc(S(C)(=O)=O)cc1 [Example 243, 1-[5-[4-(4-cyanophenyl)piperidine-1-carbonyl]-2-methyl-phenyl]-3-[(4-methylsulfonylphenyl)methyl]urea]
96.2	Cc1ccc(C(=O)N2CCC(c3ccc(C#N)cc3)CC2)cc1NC(=O)NCCCn1cccn1 [Example 244, 1-[5-[4-(4-cyanophenyl)piperidine-1-carbonyl]-2-methyl-phenyl]-3-(3-pyrazol-1-ylpropyl)urea]
94.3	Cc1cc(CNC(=O)Nc2cc(C(=O)N3CCC(c4ccc(C#N)cc4)CC3)ccc2C)on1 [Example 245, 1-[5-[4-(4-cyanophenyl)piperidine-1-carbonyl]-2-methyl-phenyl]-3-[(3-methyl-1,2-oxazol-5-yl)methyl]urea]
105	Cc1cc(CNC(=O)Nc2cc(C(=O)N3CCC(c4ccc(C#N)cc4)CC3)ccc2C)no1 [Example 246, 1-[5-[4-(4-cyanophenyl)piperidine-1-carbonyl]-2-methyl-phenyl]-3-[(5-methyl-1,2-oxazol-3-yl)methyl]urea]
101	Cc1ccc(C(=O)N2CCC(c3ccc(C#N)cc3)CC2)cc1NC(=O)NCc1cccc(S(C)(=O)=O)c1 [Example 247, 1-[5-[4-(4-cyanophenyl)piperidine-1-carbonyl]-2-methyl-phenyl]-3-[(3-methylsulfonylphenyl)methyl]urea]
100	Cc1ccc(C(=O)N2CCC(c3ccc(C#N)cc3)CC2)cc1NC(=O)NCc1nccs1 [Example 248, 1-[5-[4-(4-cyanophenyl)piperidine-1-carbonyl]-2-methyl-phenyl]-3-(1,3-thiazol-2-ylmethyl)urea]

inhibition at 100 µM [%]	SMILES
84.2	Cc1cccc(CNC(=O)Nc2cc(C(=O)N3CCC(c4ccc(C#N)cc4)CC3)ccc2C)n1 [Example 249, 1-[5-[4-(4-cyanophenyl)piperidine-1-carbonyl]-2-methyl-phenyl]-3-[(6-methylpyridin-2-yl)methyl]urea]
104	Cc1ccc(C(=O)N2CCC(c3ccc(C#N)cc3)CC2)cc1NC(=O)NCc1ncccc1C [Example 250, 3-[5-[4-(4-cyanophenyl)piperidine-1-carbonyl]-2-methyl-phenyl]-1-[(3-methylpyridin-2-yl)methyl]urea]
88.4	COc1ncccc1-c1cc(CNC(=O)Nc2cc(C(=O)N3CCC(c4ccc(C#N)cc4)CC3)ccc2C)on1 [Example 251, 1-[5-[4-(4-cyanophenyl)piperidine-1-carbonyl]-2-methyl-phenyl]-3-[[3-(2-methoxypyridin-3-yl)-1,2-oxazol-5-yl]methyl]urea]
99.4	COCCCCNC(=O)Nc1cc(C(=O)N2CCC(c3ccc(C#N)cc3)CC2)ccc1C [Example 252, 1-[5-[4-(4-cyanophenyl)piperidine-1-carbonyl]-2-methyl-phenyl]-3-(4-methoxybutyl)urea]
104	Cc1ccc(C(=O)N2CCC(c3ccc(C#N)cc3)CC2)cc1NC(=O)NCCN1CCC(F)(F)C1 [Example 254, 1-[5-[4-(4-cyanophenyl)piperidine-1-carbonyl]-2-methyl-phenyl]-3-[2-(3,3-difluoropyrrolidin-1-yl)ethyl]urea]
98.7	Cc1ccc(C(=O)N2CCC(c3ccc(C#N)cc3)CC2)cc1NC(=O)NC1CCC(N(C)C)CC1 (stereo not drawn) [Example 256, 1-[5-[4-(4-cyanophenyl)piperidine-1-carbonyl]-2-methyl-phenyl]-3-(4-dimethylaminocyclohexyl)urea]
86.2	Cc1ccc(C(=O)N2CCC(c3ccc(C#N)cc3)CC2)cc1NC(=O)NCc1cc(C)n(C)n1 [Example 257, 1-[5-[4-(4-cyanophenyl)piperidine-1-carbonyl]-2-methyl-phenyl]-3-[(1,5-dimethylpyrazol-3-yl)methyl]urea]
89	Cc1ccc(C(=O)N2CCC(c3ccc(C#N)cc3)CC2)cc1NC(=O)NCc1cn(C)nc1C [Example 258, 1-[5-[4-(4-cyanophenyl)piperidine-1-carbonyl]-2-methyl-phenyl]-3-[(1,3-dimethylpyrazol-4-yl)methyl]urea]
77.4	Cc1ccc(C(=O)N2CCC(c3ccc(C#N)cc3)CC2)cc1NC(=O)NC(C)(C)CN [Example 260, 3-(1-amino-2-methyl-propan-2-yl)-1-[5-[4-(4-cyanophenyl)piperidine-1-carbonyl]-2-methyl-phenyl]urea]
85.9	CC(=O)NC(C)(C)CNC(=O)Nc1cc(C(=O)N2CCC(c3ccc(C#N)cc3)CC2)ccc1C [Example 261, N-[1-[[5-[4-(4-cyanophenyl)piperidine-1-carbonyl]-2-methyl-phenyl]carbamoylamino]-2-methyl-propan-2-yl]acetamide]
98.7	CCC(=O)NC(C)(C)CNC(=O)Nc1cc(C(=O)N2CCC(c3ccc(C#N)cc3)CC2)ccc1C [Example 262, N-[1-[[5-[4-(4-cyanophenyl)piperidine-1-carbonyl]-2-methyl-phenyl]carbamoylamino]-2-methyl-propan-2-yl]propanamide]
79	Cc1ccc(C(=O)N2CCC(c3ccc(C#N)cc3)CC2)cc1NC(=O)NCC(C)(C)NC(=O)C(C)C [Example 263, N-[1-[[5-[4-(4-cyanophenyl)piperidine-1-carbonyl]-2-methyl-phenyl]carbamoylamino]-2-methyl-propan-2-yl]-2-methyl-propanamide]
90.1	Cc1csc(CNC(=O)Nc2cc(C(=O)N3CCC(c4ccc(C#N)cc4)CC3)ccc2C)n1 [Example 264, 1-[5-[4-(4-cyanophenyl)piperidine-1-carbonyl]-2-methyl-phenyl]-3-[(4-methyl-1,3-thiazol-2-yl)methyl]urea]
90.6	Cc1ccc(C(=O)N2CCC(c3ccc(C#N)cc3)CC2)cc1NC(=O)N[C@@H]1CCC(=O)NC1 [Example 265, 1-[5-[4-(4-cyanophenyl)piperidine-1-carbonyl]-2-methyl-phenyl]-3-[(3R)-6-oxo-3-piperidyl]urea]
103	Cc1ccc(C(=O)N2CCC(c3ccc(C#N)cc3)CC2)cc1NC(=O)NCc1ccncn1 [Example 266, 1-[5-[4-(4-cyanophenyl)piperidine-1-carbonyl]-2-methyl-phenyl]-3-(pyrimidin-4-ylmethyl)urea]
90.9	Cc1ccc(C(=O)N2CCC(c3ccc(C#N)cc3)CC2)cc1NC(=O)NCc1cn(C)cn1 [Example 267, 1-[5-[4-(4-cyanophenyl)piperidine-1-carbonyl]-2-methyl-phenyl]-3-[(1-methylimidazol-4-yl)methyl]urea]
